Columns and labels:
[1] = Comparison of growth on treated male turkeys (Study I, Table V); type: in vivo, Large White Nicholas turkeys; design: Abdominal Adipose: unit not given here; conditions: intact male; for Feed/Gain Ratio: n = 4
Protocol: (§1) The same large white strain of turkey (received 1 day posthatching from Nicholas Breeding Farms, CA) was used in all studies. Poults were reared in deep litter brooder pens from 1 day posthatch and exposed to constant light until initiation of Studies I and III or through completion in the case of Study II. Studies I and III were conducted in an environmentally controlled room (photoperiod 12L:12D) with birds housed individually in wire-floored layer cages (space dimensions of 0.31 W×0.46 L×0.53 H meters per cage). Water and feed (Agway Game and Turkey Starter Crumbles) was available at all times. Turkeys were rank ordered by weight and distributed into treatment groups of equal mean body weights at the start of each Study (I, II and III).
(§2) Body weight determinations were made at the second and final week of each study, and several organs and tissues were excised and immediately weighed at the time of necropsy. Final shank-toe length, as an indicator of skeletal growth, was also determined. Birds were sacrificed via exanguination by laceration of the jugular vein. Specific details on the experimental design and conduct of each turkey study will follow.
At 7 weeks of age, forty-nine male turkeys were rank ordered by weight and assigned to 7 treatment groups ([…]) of equal mean weights. Within treatment groups, two birds were individually caged (layer cages measuring 0.31 W×0.46 L×0.53 H meters/cage) side by side on one of three tiers (5 cages/tier and 3 tiers/rack). […] Individual treatment units (or bird sets) were randomized (planned) into cages among tiers and racks to eliminate any rack (5) or tier (3 vertical) effects within the room.
Group 1 control males were implanted with a 50-mg compressed (methylcellulose/lactose) placebo pellet. The remaining 6 treatment groups were as follows: Group 2, 50-mg testosterone pellet; Group 3, 50-mg 5-alpha-DHT pellet; Group 4, 50-mg 19-nortestosterone pellet; Group 5, 5.0-cm testosterone Silastic polysiloxane capsule; Group 6, 5-cm 5-alpha-DHT Silastic polysiloxane capsule and Group 7, 5.0-cm 19-nortestosterone Silastic polysiloxane capsule. Excluding feed efficiency, data means for all parameters were compared between treatments using individual birds as replicates (n=8). Data means for feed efficiency were compared between treatments using sets of birds as replicates (n=4).

[2] = Growth promotion and feed efficiency in turkeys (summary in words); type: in vivo; conditions: turkeys
Protocol: A presently preferred dosage in the form of such a subcutaneous implant is at least about 20 mg, with a dosage of about 50 mg being highly suitable. It has been found suitable to administer the 19-nortestosterone subcutaneously, for example, below the ear of the turkey, using conventional implanting devices. The dosage can be administered in the form of an implant device which releases the 19-nortestosterone slowly in a desired constant rate, over a period of time such a about 21 days or more. Desirably, the implant can be in the form of a capsule enveloping the 19-nortestosterone which provides the desired slow, constant release or in the form of a polymer mass pellet having encapsulated or dispersed therein 19-nortestosterone so as to permit by diffusion or slow dissolution release subcutaneously and subsequent systemic absorption. It has been found suitably to use silicone rubber as a polymeric encapsulating material.
It is a natural compound.

[3] = Comparison of growth in treated female turkeys (Study II, Table IV); type: in vivo, Large White Nicholas turkeys; design: Abdominal Adipose: unit not given here; conditions: intact female; for Feed/Gain Ratio: 6 through 9 weeks
Protocol: as §1, §2
At 6 weeks of age, seventy-seven female turkeys were rank ordered by weight and assigned to 7 treatment groups (11 birds per group) of equal mean weights. Within treatment groups, birds were further allotted to deep-litter pens (3.66×4.27 m) containing 4 subdivisions (0.91×1.22 m), with 3 birds per subdivision except for the last which contained 2. Individual treatment units (or pen subdivisions) were randomized (planned) among pens within the building, such that each pen contained 4 different treatment units (3 or 2 birds each). Feed consumption for each treatment unit was measured; thus, 4 replicates per treatment for feed consumption and feed/gain ratios (or feed efficiency) were calculated.
Treatments entailed the subcutaneous implantation (between the shoulders) of testosterone, 5-alpha-DHT or 19-nortestosterone as either a low (5-mg) or high (50-mg) dose pellet (Innovative Research of America, Rockville, Md.). Implants were specially constructed (steroid compressed into a methylcellulose/lactose pellet) to release respective steroids at a constant rate over a 21 day period (manufacturer statement). In support, a recent report by Satyaswaroop et al. (1984) on mice, found Innovative Research 17 beta-estradiol pellets to have excellent 21-day continued release characteristics (i.e., maintained blood levels of 20-30 ng/ml for 21 days). Group 1 controls were composed of females implanted with a 50-mg placebo pellet. The remaining 6 female treatment groups were as follows: Group 2, testosterone (5-mg); Group 3, 5-alpha-DHT (5-mg); Group 4, 19-nortestosterone (5-mg); Group 5, testosterone (50-mg); Group 6, 5-alpha-DHT (50-mg) and Group 7, 19-nortestosterone (50-mg). Excluding feed efficiency, data means for all other parameters were compared between treatments using individual birds as replicates (n=11). Data means for feed consumption and feed efficiency were compared between treatments using pen subdivisions (3 or 2 birds/subdivision) as replicates (n=8).
^a 5 or 50mg slow release pellets (Innovative Research) administered
subcutaneously at 6 weeks of age.
^b Data for Feed to Gain Ratio is computed for the period 6 through 9
weeks of age. Experimental units are floor pens (n = 4) of […]
values are means and SEM of the pen averages.

[4] = 50-mg pellet, change vs placebo, unsigned (increase)
[5] = 50-mg pellet, change vs placebo, unsigned (decrease)

C[C@]12CCC(=O)C[C@@H]1CC[C@@H]1[C@@H]2CC[C@]2(C)[C@@H](O)CC[C@@H]12 [5-alpha-DHT, 5-alpha-dihydrotestosterone]
Abdominal Adipose ([1]; 5-cm Silastic capsule): 12.2 ± 1.44
Average Daily Gain ([1]; 5-cm Silastic capsule): 113 ± 3 g
Final 10-Week Body Weight ([1]; 5-cm Silastic capsule): 4985 ± 60 g
Final 10-Week Shank-Toe Length ([1]; 5-cm Silastic capsule): 24.4 ± 0.15 cm
Right Breast Muscle ([1]; 5-cm Silastic capsule): 465 ± 17 g
Feed/Gain Ratio ([1]; 5-cm Silastic capsule): 2.30 ± 0.120
Right Breast Muscle (%) ([1]; 5-cm capsule, change vs placebo, unsigned (increase)): 8.4%
Feed Efficiency ([1]; 5-cm capsule, change vs placebo, column head prints (g), cells %): 9.4%
Abdominal Adipose ([1]; 50-mg pellet): 9.53 ± 1.12
Average Daily Gain ([1]; 50-mg pellet): 120 ± 3 g
Final 10-Week Body Weight ([1]; 50-mg pellet): 5202 ± 44 g
Final 10-Week Shank-Toe Length ([1]; 50-mg pellet): 24.3 ± 0.28 cm
Right Breast Muscle ([1]; 50-mg pellet): 460 ± 10 g
Feed/Gain Ratio ([1]; 50-mg pellet): 2.33 ± 0.079
Average Daily Gain (%) [1, 4]: 10.1%
Final 10-Week Body Weight (%) [1, 4]: 6.0%
Right Breast Muscle (%) [1, 4]: 7.2%
results when used instead of 19-nortestosterone [2]: unexpectedly beneficial results
Abdominal Adipose ([3]; 5-mg pellet): 21.4
Average Daily Gain ([3]; 5-mg pellet): 106 ± 2 g
Final 9-Week Body Weight ([3]; 5-mg pellet): 4073 ± 72 g
Final 9-Week Shank-Toe Length ([3]; 5-mg pellet): 18.6 ± 0.21 cm
Right Breast Muscle ([3]; 5-mg pellet): 415 ± 7 g
Feed/Gain Ratio ([3]; 5-mg pellet): 2.03 ± 0.03
Abdominal Adipose (%) ([3]; 5-mg pellet, change vs placebo, unsigned (decrease)): 28%
Abdominal Adipose ([3]; 50-mg pellet): 20.2
Average Daily Gain ([3]; 50-mg pellet): 121 ± 3 g
Final 9-Week Body Weight ([3]; 50-mg pellet): 4365 ± 84 g
Final 9-Week Shank-Toe Length ([3]; 50-mg pellet): 18.79 ± 0.25 cm
Right Breast Muscle ([3]; 50-mg pellet): 487 ± 13 g
Feed/Gain Ratio ([3]; 50-mg pellet): 1.82 ± 0.03
Abdominal Adipose (%) [3, 5]: 32%
Feed/Gain Ratio (%) [3, 5]: 13.7%
Average Daily Gain (%) [3, 4]: 17.5%
Final 9-Week Body Weight (%) [3, 4]: 8.9%
Right Breast Muscle (%) [3, 4]: 24.9%

From US5208032A, “Increasing the growth of turkeys using implant of 19-nortestosterone” (Rutgers, The State University of New Jersey, priority 1992, dated 1993)
